According to patent US20100015249A1, “Antitumor agent containing 6'-amidino-2'-naphthyl 4-guanidinobenzoate or salt thereof” (priority 2005, published 2010):

What was measured:
IκBα = assay: Western blot of IκBα / phosphorylated IκBα in cytoplasm extracts; format: cell-based, human
Description: The human pancreas cancer cell line MDAPanc-28 was treated with various concentrations of FUT to examine the effect on IκBα. Cytoplasm extracts were extracted from cells treated with various concentrations of FUT according to the method generally known and Western blot was performed to detect each protein. More specifically, each lane was loaded with 50 μg of protein to perform electrophoresis. The gel was then transferred to a PVDF membrane (Osmonics). After blocking with PBS containing 5% nonfat milk for 2 hours at room temperature, primary antibody (anti-IκBα antibody) diluted with PBS containing 0.1% nonfat milk was added for reaction at 4° C. overnight. After rinsing with PBS, the PVDF membrane was then reacted with secondary antibody solution diluted with PBS containing 0.1% nonfat milk for 2 hours at room temperature. Proteins were detected by using Lumi-Light Western Blotting Substrate.

[1] = tested on: human pancreas cancer cell line MDAPanc-28; assay: DNA fragmentation assay (apoptosis); format: cell-based; details: MDAPanc-28
Description: After adding 1000 U/ml of protease K, the sample was further incubated for 5 hours at 50° C. After extracting DNA with phenol/chloroform/isoamyl alcohol, isopropanol and ammonium acetate were added to the collected water-soluble fractions in order to collect precipitates. The precipitates were then rinsed with 70% ethanol and dissolved in Tris-EDTA buffer. Electrophoresis was performed on a 2% agarose gel and DNA bands were confirmed by using ethidium bromide. The present inventors examined the concomitant effect of FUT and TNF-α on apoptosis in cancer cells. After treatment with TNF-α for 24 hours, the human pancreas cancer cell line […]-28 was further cultured for 24 hours with various concentrations of FUT being added. Cells prepared were then subjected to an MTT assay according to the method generally known to calculate the cell survival rates. Also, DNA was extracted to perform a DNA fragmentation assay. More specifically, with regard to the MTT assay, each well was seeded with 2000 cells per 100 μl of culture medium in a 96-well microtiterplate, followed by the above mentioned treatment. […] The absorbance of the samples was measured at 570 nm by using a microplate reader. […] Two independent experiments were performed, and the average was calculated. […]

jBid = assay: Western blot of Bid / jBid; format: cell-based, human; details: MDAPanc-28, FUT 80 μg/ml, 0 to 24 hours
Description: The present inventors examined whether apoptosis signaling cascade is triggered with the elevation of TNFRI expression induced by FUT treatment, using caspase 8 as an indicator. Cytoplasmic fraction was prepared from the human pancreas cancer cell line […]-28 treated with various concentrations of FUT for 24 hours. Western blot was performed and subjected to the detection with anti-caspase 8 antibody (Santa Cruz Biotechnology) (FIG. 6-a). Western blot was performed to examine temporal changes in the expression of caspase 8, p-FADD, Bid and jBid under a constant concentration of FUT (80 μg/ml) at short intervals from 0 to 24 hours of treatment (FIGS. 6-b, 6-c and 6-d). Anti-FADD antibody was obtained from Santa Cruz Biotechnology and anti-Bid antibody was obtained from BD Pharmingen.

NF-κB [2] = assay: TNF-α-activated NF-κB after FUT treatment; format: cell-based, human; details: MDAPanc-28, FUT 80 μg/ml, TNF-α 5 ng/ml
Description: After the following treatment on the human pancreas cancer cell line […]-28, plasmatic compartment was prepared and Western blot was performed to examine the expression of phosphorylated FADD, caspase 8, NF-κB and IκBα. […] The same was true for IκBα expression (FIG. 7-c).

[3] = tested on: human pancreas cancer cell line MDAPanc-28; assay: MTT assay of cell survival rate / living cell ratio; format: cell-based
Description: The present inventors examined the concomitant effect of FUT and TNF-α on apoptosis in cancer cells. After treatment with TNF-α for 24 hours, the human pancreas cancer cell line MDAPanc-28 was further cultured for 24 hours with various concentrations of FUT being added. Cells prepared were then subjected to an MTT assay according to the method generally known to calculate the cell survival rates. Also, DNA was extracted to perform a DNA fragmentation assay.
More specifically, with regard to the MTT assay, each well was seeded with 2000 cells per 100 μl of culture medium in a 96-well microtiterplate, followed by the above mentioned treatment. After plate centrifugation, each well received 5 mg/ml of MTT (Sigma) PBS solution instead of culture medium and was incubated for 4 hours at 37° C. After removing the supernatant, 100 μl of DMSO were added to dissolve the cells. The absorbance of the samples was measured at 570 nm by using a microplate reader. 8 wells were subjected to the same condition in this experiment. Two independent experiments were performed, and the average was calculated.
However, the agents are of different types with different mechanisms of action. Therefore, the present inventors examined the effect of each agent on the living cell ratio in the human pancreas cancer cell line MDAPanc-28 singularly. After being treated with each agent for 24 hours and 48 hours, the human pancreas cancer cell line MDAPanc-28 was subjected to a MTT assay. The MTT assay was performed by the method described in Example 9.

NF-κB [4] = assay: Gel shift assay of gemcitabine-induced NF-κB activation; format: cell-based, human; details: MDAPanc-28, pretreatment 3 hours then gemcitabine 3 hours
Description: At the same time, the present inventors also made a comparison with the other NF-κB inhibitors PS1145 and PS341. […] Subsequently, a gel shift assay was performed to examine the effect on NF-κB activation.

Murine fiber cells = assay: Effect on survival rate of normal cells; format: cell-based; details: 80 μg/ml
Description: Therefore, the present inventors next examined the effect of FUT treatment on normal cells. Murine fiber cells were used as normal cells.

MMP-9 = assay: Western blot of MMP-9 expression; format: cell-based, human; details: MDAPanc-28 cytoplasmic fraction, 0 or 80 μg/ml FUT
Description: Cytoplasmic fraction was prepared from the human pancreas cancer cell line […]-28 treated with either 0 μg/ml or 80 μg/ml of FUT. Western blot was performed for the obtained cytoplasmic proteins to examine MMP-2 and MMP-9 expression. More specifically, the experiment was performed by the method described in Example 2. Rabbit polyclonal anti-MMP-2 antibody, goat polyclonal anti-MMP-9 antibody and mouse anti-B-actin antibody (Santa Cruz Biotechnology, Inc.) were used for detection.

In the case of N=C(N)c1ccc2cc(OC(=O)c3ccc(N=C(N)N)cc3)ccc2c1 [FUT, 6-amidino-2-naphthyl p-guanidinobenzoate dimethanesulfonate], the “level of phosphorylated IκBα in the cytoplasm” value (IκBα; MDAPanc-28, over time after adding FUT) is reported as “declines overtime”, the “level of IκBα in the cytoplasm over time” value (IκBα; MDAPanc-28, time after addition of FUT up to 48 hours) is reported as “increases along the progression of NF-κB inactivation up to 24 hours after addition of FUT and then is restored to a steady-state level after 48 hours” and the “level of IκBα in the cytoplasm” value (IκBα; MDAPanc-28, various concentrations of FUT) is reported as “increased by FUT in a concentration-dependent manner”. The “concentration at which DNAs were fragmented (apoptosis induction)” value [1] was no less than 40 µg/mL, the “expression of JBid, the degradation product of Bid” value (jBid) was “overtime increase in the expression of JBid” and the “TNF-α-activated NF-κB” value (NF-κB [2]) was “inhibits TNF-α-activated NF-κB”. For the same molecule, the cell survival rate ([3]; MDAPanc-28, TNF-α 24 hours then various concentrations of FUT 24 hours, MTT, compared with control cells) was “significantly declined”, the “speed of inhibitory effect on proliferation” value ([3]; MDAPanc-28, comparison of FUT with PS1145) was “more rapid inhibitory effect than PS1145” and the “cell proliferation / living cell ratio” value ([3]; MDAPanc-28, single agent, 24 hours and 48 hours, MTT) was “inhibited in a FUT concentration-dependent manner”. The “living cell ratio at 48 hours compared to 24 hours” value ([3]; MDAPanc-28, single agent, MTT) was “slightly increased at 48 hours compared to the ratio at 24 hours”, the “effect on gemcitabine-induced activation of NF-κB” value (NF-κB [4]) was “had an inhibitory effect on gemcitabine-induced activation of NF-κB” and the “inhibitory effect on gemcitabine-induced NF-κB activation compared among FUT, PS1145 and PS341” value (NF-κB [4]) was “most significant”. The “cell survival rate of normal cells” value (Murine fiber cells) was “had no effect on cell survival rate” and the MMP-9 expression (MMP-9) was “inhibited by FUT in a concentration-dependent manner”.
